From publication PMC6273807, “Identification of Selective ERRγ Inverse Agonists” (Molecules, 2016) come the findings set out here.

For data set [1], the target named is T1, ERRγ (Homo sapiens, UniProt P62508).
T1 construct: purchased Life Technologies
T1 sequence (P62508 233-457 limits assumed): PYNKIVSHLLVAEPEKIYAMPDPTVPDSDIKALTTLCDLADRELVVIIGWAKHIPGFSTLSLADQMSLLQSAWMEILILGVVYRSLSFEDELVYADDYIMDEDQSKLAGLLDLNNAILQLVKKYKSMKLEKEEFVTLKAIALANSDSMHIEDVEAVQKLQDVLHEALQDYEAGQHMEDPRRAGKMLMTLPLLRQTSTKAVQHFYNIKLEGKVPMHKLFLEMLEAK
The data set is described as follows: TR-FRET (LanthaScreen) ERRγ binding assay. The note with it: Table 1 screening, 2-fold serial dilution from 10 μM; for IC50: read-out: ERRγ, IC50 (binding inhibition of ERRγ binding activity). On the procedure:
Initials creening was conducted using a well established TR-FRET based ERRγ binding assay as described in the Experimental section at a concentration of 10 μM. Serial dilutions of the synthesized compounds were used to calculate IC50 values for the binding affinity with ERRγ.
ERRγ binding assay was conducted with Lantascreen assay system (Life Technologies, Grand Island, NY, USA), which was based on TR-FRET, followed by manufacturer’s instruction. Briefly, compounds were serially diluted with 2-fold staring from 10 μM and 10 μL of each diluent was added in 384 well plate. Then, GST-conjugated ERRγ LBD (ligand-binding domain) was added to be 5 nM. Next, the mixture of fluorescien-conjugated coactivator PGC1a (final concentration to be 500 nM) and Tb-a-GST antibody (final concentration to be 5 nM) was added. The reaction mixture was incubated at rt in dark state for 1 h.

In data set [2] the target is T2, ERRγ (Homo sapiens, UniProt P62508).
T2 sequence (P62508 233-458 limits assumed): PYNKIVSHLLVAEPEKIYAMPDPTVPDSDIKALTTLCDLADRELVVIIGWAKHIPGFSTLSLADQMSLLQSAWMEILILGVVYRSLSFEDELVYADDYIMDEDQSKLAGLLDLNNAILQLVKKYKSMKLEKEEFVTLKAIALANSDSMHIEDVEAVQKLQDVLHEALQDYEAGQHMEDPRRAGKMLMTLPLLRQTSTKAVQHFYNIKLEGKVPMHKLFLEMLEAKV
The data set is described as follows: ERRγ functional assay: GAL4-ERRγ luciferase reporter gene in AD293 cells. It is filed as cell-based. The note with it: for ERRγ functional activity in the cellular system (in words): 10 μM, reporter-gene assay, compared with control ligand 4; for inhibition at 10 µM: AD293, 24 h, screening concentration of 10 μM, read-out: transcriptional repression. As for the experimental part:
Along with the binding assay campaign, functional activity was determined in order to validate the utility of the binding affinity in a cellular context as described in the Experimental.
Figure 2 Cell based reporter-gene assay screening of 16 analogs ERRγ binding activity in cell was measured by luciferase activity using co-transfection system with GAL4-ERRγ and pFR-luciferase reporter gene.
AD293 cells were cultured in Dulbecco’ modified Eagle medium (DMEM) High glucose supplemented with 0.5% FBS (Hyclone, Logan, UT, USA). After 24 h, culture media was changed with DMEM High glucose containing 10% FBS. DNA constructs, which includes pCMX-Gal4-ERRγ, pFR-luciferase reporter plasmid, pCMV-β-gal were transiently transfected into AD293 cells using TransIT-LT1 transfection reagent (Mirus, Madison, WI, USA) for 24 h. Then, transfected cells were treated with compounds for 24 h and harvested for detection of luciferase activity and β-gal activity. All cells were incubated at 37 °C under 5% CO2 in a humidified incubator [5].

Data set [3] can be described thus: Metabolic stability assay in liver microsomes (dog). The format is in vitro ADME. The note with it: 1 μM, 30 min, 37 °C, NADPH. On the procedure:
(§1) The metabolic stability assay was performed by incubation of human and selected animal liver microsomes (most often dog, rat and mouse), at 37 °C with a test compound at a final concentration of 1 μM, in the presence of 0.5 mg/mL microsomal protein and NADPH regeneration system, in a total volume of 100 μL of 100 mM phosphate buffer, pH 7.4. The incubation was started by the addition of NADPH regeneration system and terminated with adding 40 μL of ice-cold acetonitrile at 0 and 30 min. […] Incubations terminated prior to addition of NADPH regeneration system (time point 0 min) were used as standards, defined as 100%. Percent of the parent compound remaining was calculated by comparing peak areas.

In the next data set the target is CYP2C9 (Homo sapiens, UniProt P11712). The data set can be described thus: CYP inhibition assay, cocktail, human liver microsomes (tolbutamide 4-hydroxylase). The note with it: 10 μM, human liver microsomes; activity in presence of inhibitor as % of control. It is filed as in vitro ADME.
Data set [4] in a line: Metabolic stability assay in liver microsomes (mouse). The format is in vitro ADME. The note with it: 1 μM, 30 min, 37 °C, NADPH. As for the experimental part:
as §1

The nature of data set [5]: Metabolic stability assay in liver microsomes (rat). It is filed as in vitro ADME. The note with it: 1 μM, 30 min, 37 °C, NADPH. As for the experimental part:
as §1

The target in the next data set is CYP2C19 (Homo sapiens, UniProt P33261). The data set can be described thus: CYP inhibition assay, cocktail, human liver microsomes (S-mephenytoin 4-hydroxylase). The format is in vitro ADME. The note with it: 10 μM, activity in presence of inhibitor as % of control.
The target in a further data set is T3, CYP1A2 (Homo sapiens, UniProt P05177).
T3 sequence (P05177 1-516): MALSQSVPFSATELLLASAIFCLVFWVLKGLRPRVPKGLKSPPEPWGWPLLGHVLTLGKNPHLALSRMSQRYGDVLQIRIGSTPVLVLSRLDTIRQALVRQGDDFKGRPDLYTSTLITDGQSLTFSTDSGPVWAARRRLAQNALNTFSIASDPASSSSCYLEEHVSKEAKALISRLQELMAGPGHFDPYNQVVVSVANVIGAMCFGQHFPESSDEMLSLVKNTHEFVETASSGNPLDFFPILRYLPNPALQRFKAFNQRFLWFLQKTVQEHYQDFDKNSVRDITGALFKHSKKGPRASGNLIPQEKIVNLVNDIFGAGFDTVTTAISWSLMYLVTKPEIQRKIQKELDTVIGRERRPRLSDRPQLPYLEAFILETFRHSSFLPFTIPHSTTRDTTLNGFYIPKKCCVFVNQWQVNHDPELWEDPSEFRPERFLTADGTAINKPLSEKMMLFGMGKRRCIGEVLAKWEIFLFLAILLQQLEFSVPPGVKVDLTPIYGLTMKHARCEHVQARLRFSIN
The data set can be described thus: CYP inhibition assay, cocktail, human liver microsomes (phenacetin O-deethylase). It is filed as in vitro ADME. The note with it: 10 μM, activity in presence of inhibitor as % of control.

The target of another data set is CYP2D6 (Homo sapiens, UniProt P10635). The data set can be described thus: CYP inhibition assay, cocktail, human liver microsomes (dextromethorphan O-demethylase). The note with it: 10 μM, activity in presence of inhibitor as % of control. It is filed as in vitro ADME.
Data set [6] is described as follows: Metabolic stability assay in liver microsomes (human). The format is in vitro ADME. The note with it: 1 μM, 30 min, 37 °C, NADPH. As for the experimental part:
as §1

The subject of a further data set is CYP3A. The data set is described as follows: CYP inhibition assay, cocktail, human liver microsomes (midazolam 1'-hydroxylase). The format is in vitro ADME. The note with it: 10 μM, activity in presence of inhibitor as % of control.

CYP2D6, sequence (P10635 whole entry): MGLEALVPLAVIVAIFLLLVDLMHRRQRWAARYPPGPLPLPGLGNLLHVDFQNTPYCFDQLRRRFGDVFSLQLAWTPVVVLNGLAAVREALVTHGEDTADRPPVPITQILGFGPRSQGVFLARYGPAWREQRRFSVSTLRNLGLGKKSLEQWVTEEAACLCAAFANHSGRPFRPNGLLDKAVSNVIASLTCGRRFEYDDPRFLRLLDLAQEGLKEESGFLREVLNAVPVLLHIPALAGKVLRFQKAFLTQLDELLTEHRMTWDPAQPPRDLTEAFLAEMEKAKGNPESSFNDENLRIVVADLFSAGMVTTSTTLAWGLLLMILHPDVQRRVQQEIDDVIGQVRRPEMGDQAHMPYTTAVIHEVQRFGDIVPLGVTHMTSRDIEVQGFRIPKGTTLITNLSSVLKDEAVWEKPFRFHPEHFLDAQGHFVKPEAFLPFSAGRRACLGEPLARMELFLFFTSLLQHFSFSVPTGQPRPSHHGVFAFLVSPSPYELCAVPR
CYP2C19, sequence (P33261 whole entry): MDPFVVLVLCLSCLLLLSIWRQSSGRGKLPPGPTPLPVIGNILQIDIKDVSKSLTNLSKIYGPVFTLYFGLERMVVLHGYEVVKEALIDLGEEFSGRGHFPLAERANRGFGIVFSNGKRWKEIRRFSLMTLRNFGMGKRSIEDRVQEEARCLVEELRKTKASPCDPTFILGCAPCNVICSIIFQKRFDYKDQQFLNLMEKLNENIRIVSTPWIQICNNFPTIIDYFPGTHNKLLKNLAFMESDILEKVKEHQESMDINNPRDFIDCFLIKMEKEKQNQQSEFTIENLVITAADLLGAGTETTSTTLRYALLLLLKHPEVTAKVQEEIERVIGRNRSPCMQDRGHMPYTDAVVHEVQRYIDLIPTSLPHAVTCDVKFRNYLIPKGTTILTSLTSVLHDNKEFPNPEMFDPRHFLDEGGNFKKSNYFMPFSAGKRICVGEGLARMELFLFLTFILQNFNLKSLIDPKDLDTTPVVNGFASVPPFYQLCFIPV
CYP2C9, sequence (P11712 whole entry): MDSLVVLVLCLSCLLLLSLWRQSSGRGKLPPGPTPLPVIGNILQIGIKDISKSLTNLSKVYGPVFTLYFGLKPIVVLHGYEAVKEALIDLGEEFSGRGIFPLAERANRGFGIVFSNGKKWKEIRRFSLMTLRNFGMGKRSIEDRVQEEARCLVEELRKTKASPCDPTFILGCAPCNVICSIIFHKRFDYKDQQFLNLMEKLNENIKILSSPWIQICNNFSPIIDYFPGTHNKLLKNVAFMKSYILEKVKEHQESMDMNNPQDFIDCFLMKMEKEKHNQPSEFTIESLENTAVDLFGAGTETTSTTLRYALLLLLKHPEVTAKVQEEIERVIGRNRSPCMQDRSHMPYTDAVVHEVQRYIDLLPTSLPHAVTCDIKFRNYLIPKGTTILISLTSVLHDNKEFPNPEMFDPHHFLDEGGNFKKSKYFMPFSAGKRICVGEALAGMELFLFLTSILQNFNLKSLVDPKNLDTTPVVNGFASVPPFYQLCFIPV

Regarding `CN(C)CCOc1ccc(/C(=C(/CCCO)c2ccnc(F)c2)c2ccc(O)cc2)cc1` [Compound 15e, (Z)-4-(1-(4-(2-(Dimethylamino)ethoxy)phenyl)-2-(2-fluoropyridin-4-yl)-5-hydroxypent-1-en-1-yl)phenol], the IC50 at ERRγ [1] is 5.35 µM. Further, the “ERRγ functional activity in the cellular system (in words)” value (shortened to “ERRγ functional activity”) at ERRγ [2] is on record as “comparable regression of the ERRγ transcriptional activity”.
For `CN(C)CCOc1ccc(/C(=C(/CCCO)c2ccccc2)c2ccc(O)cc2)cc1` [Compound 4, GSK5182, reference compound], the “MS (%), Dog (percent of parent compound remaining)” value in data set [3] is given as “less than 10%”. For the same molecule, the “CYP Inhibition (% of Control), 2C9” value on CYP2C9 is 73 % of Control. In data set [4], the “MS (%), Mouse (percent of parent compound remaining)” value is “less than 10%”. For the same molecule, the “MS (%), Rat (percent of parent compound remaining)” value in data set [5] is listed as 26%. Besides, the “CYP Inhibition (% of Control), 2C19” value on CYP2C19 is on record as 78 % of Control. At CYP1A2, the “CYP Inhibition (% of Control), 1A2” value is listed as 84 % of Control. In addition, at CYP2D6, the “CYP Inhibition (% of Control), 2D6” value is listed as 82 % of Control. Also, the “MS (%), Human (percent of parent compound remaining)” value in data set [6] was found to be 43%. Moreover, in the data set with CYP3A, the “CYP Inhibition (% of Control), 3A4” value is 83 % of Control.
In the case of `CN(C)CCOc1ccc(/C(=C(/CCCO)c2ccc3ccncc3c2)c2ccc(O)cc2)cc1` [Compound 15j, (Z)-4-(1-(4-(2-(Dimethylamino)ethoxy)phenyl)-5-hydroxy-2-(isoquinolin-7-yl)pent-1-en-1-yl)phenol], at ERRγ [1], the IC50 worked out at 4.71 µM.
Take `COc1ccc(/C(CCCO)=C(/c2ccc(O)cc2)c2ccc(OCCN(C)C)cc2)cn1` [Compound 15c, (Z)-4-(1-(4-(2-(Dimethylamino)ethoxy)phenyl)-5-hydroxy-2-(6-methoxypyridin-3-yl)pent-1-en-1-yl)phenol]: the IC50 at ERRγ [1] is > 10 µM. The inhibition at 10 µM at ERRγ [2] is ~50%.
For `COCCC/C(=C(\c1ccc(O)cc1)c1ccc(OCCN(C)C)cc1)c1ccc(C(C)C)nc1` [Compound 17, (Z)-4-(1-(4-(2-(Dimethylamino)ethoxy)phenyl)-2-(6-isopropylpyridin-3-yl)-5-methoxypent-1-en-1-yl)phenol] the same measures were > 10 µM and ~50%.
In the same order, the values of `COCCC/C(=C(\c1ccc(O)cc1)c1ccc(OCCN(C)C)cc1)c1cnn(C)c1` [Compound 13c, (Z)-4-(1-(4-(2-(Dimethylamino)ethoxy)phenyl)-5-methoxy-2-(1-methyl-1H-pyrazol-4-yl)pent-1-en-1-yl)-phenol] are > 10 µM and ~50%.
With `COCCC/C(=C(\c1ccc(O)cc1)c1ccc(OCCN(C)C)cc1)c1cccnc1` [Compound 13a, (Z)-4-(1-(4-(2-(Dimethylamino)ethoxy)phenyl)-5-methoxy-2-(pyridin-3-yl)pent-1-en-1-yl)phenol], the IC50 at ERRγ [1] worked out at 0.99 µM. Besides, on ERRγ [2], the “ERRγ functional activity” value is given as “comparable regression of the ERRγ transcriptional activity”.
Regarding `COCCC/C(=C(\c1ccc(O)cc1)c1ccc(OCCN(C)C)cc1)c1ccncc1` [Compound 13b, (Z)-4-(1-(4-(2-(Dimethylamino)ethoxy)phenyl)-5-methoxy-2-(pyridin-4-yl)pent-1-en-1-yl)phenol], the IC50 at ERRγ [1] was > 10 µM. The inhibition at 10 µM on ERRγ [2] was ~50%.
As for `CN(C)CCOc1ccc(/C(=C(/CCCO)c2ccc(N3CCOCC3)nc2)c2ccc(O)cc2)cc1` [Compound 15f, (Z)-4-(1-(4-(2-(Dimethylamino)ethoxy)phenyl)-5-hydroxy-2-(6-morpholinopyridin-3-yl)pent-1-en-1-yl)phenol], the IC50 on ERRγ [1] was > 10 µM. Moreover, on ERRγ [2], the “ERRγ functional activity” value is given as “partial agonistic activity”.
Regarding `CN(C)CCOc1ccc(/C(=C(/CCCO)c2ccc3nccn3c2)c2ccc(O)cc2)cc1` [Compound 15i, (Z)-4-(1-(4-(2-(Dimethylamino)ethoxy)phenyl)-5-hydroxy-2-(imidazo[1,2-a]pyridin-6-yl)pent-1-en-1-yl)phenol], the half-inhibitory concentration (IC50) at ERRγ [1] was > 10 µM. Further, the inhibition at 10 µM at ERRγ [2] was ~0%.
In the case of `CN(C)CCOc1ccc(/C(=C(/CCCO)c2cccnc2)c2ccc(O)cc2)cc1` [Compound 15d, (Z)-4-(1-(4-(2-(Dimethylamino)ethoxy)phenyl)-5-hydroxy-2-(pyridin-3-yl)pent-1-en-1-yl)phenol], at ERRγ [1], the IC50 is 3.1 µM.
As to `CN(C)CCOc1ccc(/C(=C/CCCO)c2ccc(O)cc2)cc1` [Compound 15a, (E)-4-(1-(4-(2-(Dimethylamino)ethoxy)phenyl)-5-hydroxypent-1-en-1-yl)phenol], the IC50 at ERRγ [1] is > 10 µM. In addition, the inhibition at 10 µM on ERRγ [2] is ~0%.
For `COCCC/C(=C(\c1ccc(O)cc1)c1ccc(OCCN(C)C)c(C(F)(F)F)c1)c1cccnc1` [Compound 16], on ERRγ [1], the “ERRγ, IC50 (binding inhibition of ERRγ binding activity)” value is “no affinity” and the IC50 was > 10 µM. Also, the inhibition at 10 µM at ERRγ [2] was ~0%.
With `CN(C)CCOc1ccc(/C(=C(/CCCO)c2ccc(O)cc2)c2ccc(O)cc2)cc1` [Compound 15b, (Z)-4,4′-(1-(4-(2-(Dimethylamino)ethoxy)phenyl)-5-hydroxypent-1-ene-1,2-diyl)diphenol], on ERRγ [1], the IC50 came out at 2.32 µM.
